Measured values published in US10906873B2, “Substituted cyclic amides as herbicides” (FMC Corporation, priority 2015, dated 2021).

How the values were obtained:
[1] = system: wheat (Triticum aestivum); test: Test A preemergence, wheat; assay type: in vivo; conditions: 1000 g ai/ha, 0 to 100 scale
Excerpt: (§1) Seeds of plant species selected from barnyardgrass (Echinochloa crus-galli), crabgrass (large crabgrass, Digitaria sanguinalis), kochia (Kochia scoparia), ragweed (common ragweed, Ambrosia elatior), morningglory (Ipomoea spp.), velvetleaf (Abutilon theophrasti), ryegrass, It. (Italian ryegrass, Lolium multiflorum), foxtail, giant (giant foxtail, Setaria faberii), wheat (Triticum aestivum), corn (Zea mays), and pigweed (Amaranthus retroflexus), were planted into a blend of loam soil and sand and treated preemergence with a directed soil spray using test chemicals formulated in a non-phytotoxic solvent mixture which included a surfactant. At the same time, plants selected from these crop and weed species and also blackgrass (Alopecurus myosuroides), and galium (catchweed bedstraw, Galium aparine), were planted in pots containing the same blend of loam soil and sand and treated with postemergence applications of test chemicals formulated in the same manner. Plants ranged in height from 2 to 10 cm and were in the one- to two-leaf stage for the postemergence treatment. Treated plants and untreated controls were maintained in a greenhouse for approximately 10 d, after which time all treated plants were compared to untreated controls and visually evaluated for injury. Plant response ratings, summarized in Table A, are based on a 0 to 100 scale where 0 is no effect and 100 is complete control. A dash (-) response means no test result.

[2] = system: foxtail, giant (giant foxtail, Setaria faberii); test: Test A preemergence, foxtail, giant; assay type: in vivo; conditions: 1000 g ai/ha, 0 to 100 scale
Outline: (§2)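 Seeds sown in loam–sand blend received a directed soil spray preemergence; postemergence plants (2–10 cm, one- to two-leaf stage) were sprayed with test chemicals in non-phytotoxic solvent with surfactant. After about 10 d in greenhouse, injury was scored visually versus untreated controls, 0 (no effect) to 100 (complete control).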

[3] = system: crabgrass (large crabgrass, Digitaria sanguinalis); test: Test A preemergence, crabgrass; assay type: in vivo; conditions: 1000 g ai/ha, 0 to 100 scale
Excerpt: as §1

[4] = system: crabgrass (large crabgrass, Digitaria sanguinalis); test: Test A postemergence, crabgrass; assay type: in vivo; conditions: 1000 g ai/ha, 0 to 100 scale
Excerpt: as §1

[5] = system: barnyardgrass (Echinochloa crus-galli); test: Test A preemergence, barnyardgrass; assay type: in vivo; conditions: 1000 g ai/ha, 0 to 100 scale
Outline: as §2

[6] = system: foxtail, giant (giant foxtail, Setaria faberii); test: Test A postemergence, foxtail, giant; assay type: in vivo; conditions: 1000 g ai/ha, 0 to 100 scale
Outline: as §2

corn (Zea mays) [7] = test: Test A preemergence, corn; assay type: in vivo; conditions: 1000 g ai/ha, 0 to 100 scale
Excerpt: as §1

[8] = system: morningglory (Ipomoea spp.); test: Test A preemergence, morningglory; assay type: in vivo; conditions: 1000 g ai/ha, 0 to 100 scale
Excerpt: as §1

[9] = system: morningglory (Ipomoea spp.); test: Test A postemergence, morningglory; assay type: in vivo; conditions: 1000 g ai/ha, 0 to 100 scale
Excerpt: as §1

[10] = system: velvetleaf (Abutilon theophrasti); test: Test A preemergence, velvetleaf; assay type: in vivo; conditions: 1000 g ai/ha, 0 to 100 scale
Excerpt: as §1

[11] = system: pigweed (Amaranthus retroflexus); test: Test A postemergence, pigweed; assay type: in vivo; conditions: 1000 g ai/ha, 0 to 100 scale
Outline: as §2

[12] = system: wheat (Triticum aestivum); test: Test A postemergence, wheat; assay type: in vivo; conditions: 1000 g ai/ha, 0 to 100 scale
Outline: as §2

[13] = system: barnyardgrass (Echinochloa crus-galli); test: Test A postemergence, barnyardgrass; assay type: in vivo; conditions: 1000 g ai/ha, 0 to 100 scale (0 no effect, 100 complete control)
Outline: as §2

[14] = system: pigweed (Amaranthus retroflexus); test: Test A preemergence, pigweed; assay type: in vivo; conditions: 1000 g ai/ha, 0 to 100 scale
Outline: as §2

[15] = system: velvetleaf (Abutilon theophrasti); test: Test A postemergence, velvetleaf; assay type: in vivo; conditions: 1000 g ai/ha, 0 to 100 scale
Excerpt: as §1

corn (Zea mays) [16] = test: Test A postemergence, corn; assay type: in vivo; conditions: 1000 g ai/ha, 0 to 100 scale
Outline: as §2

rice (Oryza sativa) = test: Test B flooded paddy test, rice; assay type: in vivo; conditions: Flood, scale of 0 to 100 where 0 is no effect and 100 is complete control, 13 to 15 d
Outline: (§3)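 Plants at the 2-leaf stage were flooded to 3 cm above soil, and test compounds were applied directly into the paddy water, which was held at that depth throughout. After 13 to 15 d in a greenhouse, injury was rated visually against untreated controls on a 0–100 scale (0 no effect, 100 complete control).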

[17] = system: barnyardgrass (Echinochloa crus-galli); test: Test B flooded paddy test, barnyardgrass; assay type: in vivo; conditions: Flood, scale of 0 to 100 where 0 is no effect and 100 is complete control, 13 to 15 d
Outline: as §3

[18] = system: sedge, umbrella (small-flower umbrella sedge, Cyperus difformis); test: Test B flooded paddy test, sedge, umbrella; assay type: in vivo; conditions: Flood, scale of 0 to 100 where 0 is no effect and 100 is complete control, 13 to 15 d
Outline: as §3

[19] = system: ducksalad (Heteranthera limosa); test: Test B flooded paddy test, ducksalad; assay type: in vivo; conditions: Flood, scale of 0 to 100 where 0 is no effect and 100 is complete control, 13 to 15 d
Outline: as §3

| SMILES | Plant response rating, Wheat [1] | Plant response rating, Foxtail, Giant [2] | Plant response rating, Crabgrass [3] | Plant response rating, Crabgrass [4] | Plant response rating, Barnyardgrass [5] | Plant response rating, Foxtail, Giant [6] | Plant response rating, Corn (corn (Zea mays) [7]) | Plant response rating, Morningglory [8] | Plant response rating, Morningglory [9] | Plant response rating, Velvetleaf [10] | Plant response rating, Pigweed [11] | Plant response rating, Wheat [12] | Plant response rating, Barnyardgrass [13] | Plant response rating, Pigweed [14] | Plant response rating, Velvetleaf [15] | Plant response rating, Corn (corn (Zea mays) [16]) | Plant response rating, Rice (rice (Oryza sativa); 1000 g ai/ha) | Plant response rating, Barnyardgrass ([17]; 1000 g ai/ha) | Plant response rating, Sedge, Umbrella ([18]; 1000 g ai/ha) | Plant response rating, Ducksalad ([19]; 1000 g ai/ha) | also measured |
| --- | --- | --- | --- | --- | --- | --- | --- | --- | --- | --- | --- | --- | --- | --- | --- | --- | --- | --- | --- | --- | --- |
| O=C1NCC(Cc2ccc(F)cc2)C1C(=O)Nc1ccccc1F (stereo not drawn) [Compound 14] | 0 | 30 | 80 | 20 | 20 | 0 | 0 | 0 | 0 | 0 | 0 | 0 | 0 | 0 | 0 | 0 | – | – | – | – | – |
| O=C1NCC(Cc2cccc(Cl)c2)C1C(=O)Nc1ccccc1F (stereo not drawn) [Compound 2] | 0 | 80 | 90 | 80 | 30 | 60 | 0 | 0 | 0 | 0 | 0 | 0 | 30 | 0 | 0 | 0 | 0 | 0 | 0 | 0 | – |
| O=C1NCC(Cc2ccccc2)C1C(=O)Nc1cccc(F)c1F (stereo not drawn) [Compound 4] | 0 | 0 | 60 | 20 | 0 | 0 | 0 | 0 | 0 | 0 | 0 | 0 | 0 | 0 | 0 | 0 | – | – | – | – | – |
| O=C1NCC(Cc2cccc(Cl)c2)C1C(=O)Nc1cccc(F)c1F (stereo not drawn) [Compound 1, 4-[(3-chlorophenyl)methyl]-N-(2,3-difluorophenyl)-2-oxo-3-pyrrolidinecarboxamide] | 0 | 90 | 90 | 80 | 70 | 80 | 0 | 0 | 0 | 0 | 0 | 0 | 80 | 0 | 10 | 0 | 0 | 0 | 0 | 50 | melting point: 132 to 134 °C |
| O=C1NCC(Cc2ccc(F)cc2)C1C(=O)Nc1cccc(F)c1F (stereo not drawn) [Compound 13, N-(2,3-difluorophenyl)-4-[(4-fluorophenyl)methyl]-2-oxo-3-pyrrolidinecarboxamide] | 0 | 60 | 80 | 80 | 80 | 60 | 0 | 0 | 0 | 0 | 0 | 0 | 80 | 0 | 0 | 0 | – | – | – | – | Plant response rating, Rice (rice (Oryza sativa); 250 g ai/ha): 0; Plant response rating, Barnyardgrass ([17]; 250 g ai/ha): 0; Plant response rating, Sedge, Umbrella ([18]; 250 g ai/ha): 0; Plant response rating, Ducksalad ([19]; 250 g ai/ha): 0 |
